Data published in patent publication US20060004088A1, “Furan derivatives for preventing and curing osteoporosis and pharmaceutical compositions containing the same” (OCT INC., priority 2002, published 2006).

Tested on: osteoclast pregenitor cells
Experiment: Inhibition rates of furan derivatives versus osteoclast formation (TRAP staining)
Assay type: cell-based, mice
Conditions: TRAP-positive multinucleated cells, untreated control set as 100%
How it was run: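 Non-adherent mouse bone-marrow osteoclast precursors cultured 8 days with 20 ng/ml M-CSF and 30 ng/ml RANKL in presence of compound. TRAP-positive cells with ≥3 nuclei counted; inhibition expressed relative to untreated control set at 100%.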

| SMILES | Inhibition rate against osteoclast formation, % (0.1 μM) [%] | Inhibition rate against osteoclast formation, % (1 μM) [%] | Inhibition rate against osteoclast formation, % (10 μM) [%] |
| --- | --- | --- | --- |
| CCOc1ccc(OCc2ccc(C(=O)NC(C)(C)C)o2)cc1 [Compound 165] | 12.35 | 28.76 | 88.75 |
| O=C(O)c1ccc(COc2cccc(Cl)c2)o1 [Compound 112] | 0 | 0 | 7.79 |
| O=Cc1ccc(COC(=O)Cc2cccc(Cl)c2)o1 [Compound 35] | 0 | 23.33 | 43.33 |
| O=C(Nc1cccc(Cl)c1Cl)c1ccc(COc2ccccc2[N+](=O)[O-])o1 [Compound 156] | 13.01 | 18.26 | 98.48 |
| O=Cc1ccc(COC(=O)Nc2cccc(Cl)c2)o1 [Compound 49] | 0 | 10 | 0 |
| COC(=O)c1ccc(COc2ccccc2Cl)o1 [Compound 61] | 0 | 0 | 11.66 |
| COC(=O)c1ccc(COc2ccc(Cl)cc2Cl)o1 [Compound 60] | 0 | 0 | 32.75 |
| O=C(Nc1ccccc1F)c1ccc(COc2ccc(Cl)cc2)o1 [Compound 178] | 0 | 0 | 14.09 |
| COC(=O)c1ccc(COc2ccc3c(c2)CCC3)o1 [Compound 70] | 0 | 0 | 3.34 |
